Measurements published in US20160130630A1, “METHOD FOR DETECTING CAMPYLOBACTER” (JNC CORPORATION, priority 2014, published 2016).

Legend:
Campylobacter bacteria = experiment: growth inhibition of Campylobacter bacteria by cephamycin antibiotics; assay type: cell-based
ESBL-producing bacteria = experiment: growth inhibition of ESBL-producing bacteria; assay type: cell-based

Question: `CO[C@@]1(NC(=O)Cc2cccs2)C(=O)N2C(C(=O)O)=C(COC(N)=O)CS[C@@H]21` [Cefoxitin] was tested. Which “inhibition of growth of Campylobacter bacteria” value (Campylobacter bacteria) did it give?
Answer: does not inhibit growth

Question: And the “inhibition of growth of ESBL-producing bacteria” value (ESBL-producing bacteria)?
Answer: inhibits the growth
